# Measured values: US20030171293A1, “Neuropeptide receptor and uses thereof” (Pfizer Inc., priority 2002, published 2003)
# Where a SMILES comes first, the peptide text is derived from it. Bridges are numbered along the chain shown (N, C = ends). [ ]: non-standard residue; d: D form. dTrp(2-Me) = Cc1[nH]c2ccccc2c1C[C@@H](N)C(=O)O; d2Nal = N[C@H](Cc1ccc2ccccc2c1)C(=O)O; Nle = CCCC[C@H](N)C(=O)O
# Tests used:
# receptor MRGX2 = target: T1, receptor MRGX2 (Homo sapiens, UniProt Q96LB1); assay: Functional assay measuring intracellular calcium mobilisation (FLIPR); type: cell-based; details: for EC50: Preliminary EC50 data for receptor MRGX2, transiently transfected cells, Fluo3 calcium response; for response of MRGX2 receptor: at a concentration of 1 μM
# T1 construct: expressed in transfected cells; host or cells: host line such as HEK293 or CHO-K1, stably expressing Galpha15/Gqi-5
# T1 sequence (Q96LB1 1-330): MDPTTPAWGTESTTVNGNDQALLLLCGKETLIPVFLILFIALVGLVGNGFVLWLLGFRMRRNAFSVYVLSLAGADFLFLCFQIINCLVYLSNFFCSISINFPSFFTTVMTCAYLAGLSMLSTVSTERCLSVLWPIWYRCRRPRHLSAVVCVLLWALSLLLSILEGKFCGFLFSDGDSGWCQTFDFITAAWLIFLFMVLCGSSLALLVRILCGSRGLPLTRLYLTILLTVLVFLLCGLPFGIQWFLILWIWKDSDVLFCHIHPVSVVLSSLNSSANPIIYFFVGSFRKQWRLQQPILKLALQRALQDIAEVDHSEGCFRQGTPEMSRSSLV
# Protocol: 5×10^6 cells of a suitable host cell line, chosen to express a low number of endogenous receptors (e.g. HEK293 or CHO-K1) and engineered to stably express Gα15/Gqi-5, were transiently transfected with 7.5 μg of cDNA encoding receptor MRGX2 in a suitable mammalian cell expression vector, or vector alone, using Lipofectamine Plus® reagent (Gibco BRL) as per the manufacturer's protocol. If the cells were intended for a ligand binding assay or microphysiometry, they were incubated for 24-72 hours post transfection, and then harvested. If a microtitre plate-based assay was intended, the cells were detached from the flask using Trypsin/EDTA solution (LTI) 24 hours post transfection, and seeded into e.g. a black sided, Poly-D-lysine-treated, 96-well plate (Becton Dickinson) at 5×10^4 cells/well density. The plates were left overnight to allow the cells to adhere to the bottom of the wells.
# Fluorescence Imaging Plate Reader (FLIPR®) technology was employed as a means to detect activation of receptor MRGX2 by various potential GPCR agonists.
# 24 hrs post-transfection, the cells were detached from the flask using Trypsin/EDTA solution (LTI) and seeded into a black sided, Poly-D-lysine-treated, 96-well plate (Becton Dickinson) at 5×10^4 cells/well density. The plates were left overnight to allow the cells to adhere to the bottom of the wells. The medium was removed from the cells and replaced with 100 μl warm (37° C.) dye loading solution (50 μg Fluo3 (Molecular Probes) in 20 μl DMSO+20% pluronic acid in DMSO, added to 11 ml Dulbecco's Modified Eagles Medium containing 1× Probenecid (100× Probenecid—0.71 g Probenecid was dissolved in 5 ml 1 M NaOH and 5 ml Dulbeccos' Phosphate Buffered Saline (PBS), per plate; Probenecid (Molecular Probes) inhibits activity of the anion transport protein, thus improving dye loading). The plates were then incubated for 1 hr at 37° C. Plates were subsequently washed with 250 μl of wash buffer per well (5 ml 100× Probenecid stock+495 ml PBS, pH 7.4) 4 times. The plates were returned to the 37° C./5%CO2 incubator for 30 mins prior to processing within the FLIPR® instrument. The FLIPR® processing involved reading the fluorescence for all samples for 2 minutes; during this time the fluorescence baseline was determined for 10 seconds. The desired amount of compounds (i.e. potential GPCR agonists) was then automatically transferred to the wells and the fluorescence was continuously monitored for the remainder of the time. All compounds were diluted in wash buffer.
# guinea pig ileum = details: GPI assay; cited from earlier work
# food intake = details: i.c.v., free feeding rats; maximal response at 1 nmol dose; cited from earlier work
Compound,EC50 (receptor MRGX2),other results
"NCCC[C@@H](NC(=O)[C@@H]1CCCN1C(=O)[C@@H]1CSSCCC(=O)N[C@@H](Cc2ccc(O)cc2)C(=O)N[C@@H](Cc2ccccc2)C(=O)N[C@@H](CCC(N)=O)C(=O)N[C@@H](CC(N)=O)C(=O)N1)C(=O)NCC(N)=O [(Deamino-Cysl,D-Orn^8) Vasopressin]",> 10 µM,–
CC[C@H](C)[C@H](NC(=O)[C@H](CCCNC(=N)N)NC(=O)[C@H](CCCNC(=N)N)NC(=O)[C@H](CC(C)C)NC(=O)[C@H](Cc1ccccc1)NC(=O)CNC(=O)CNC(=O)[C@@H](N)Cc1ccc(O)cc1)C(=O)N[C@@H](CCCNC(=N)N)C(=O)N1CCC[C@H]1C(=O)N[C@@H](CCCCN)C(=O)N[C@@H](CC(C)C)C(=O)N[C@@H](CCCCN)C(=O)N[C@@H](Cc1c[nH]c2ccccc12)C(=O)N[C@@H](CC(=O)O)C(=O)N[C@@H](CC(N)=O)C(=O)N[C@@H](CCC(N)=O)C(=O)O [Dynorphin A],1.85 µM,potency relative to [Leu]-enkephalin (guinea pig ileum): 700 times; potency relative to normorphine (guinea pig ileum): about 200 times; potency relative to β-endorphin (guinea pig ileum): 50 times
CC(=O)N[C@H]1CSSC[C@@H](C(=O)N2CCC[C@H]2C(=O)N2CCC[C@H]2C(=O)N[C@@H](CCCCN)C(=O)N[C@@H](CC(=O)O)C(N)=O)NC(=O)CNC(=O)[C@H](Cc2c[nH]c3ccccc23)NC(=O)[C@H](CCCNC(=N)N)NC(=O)[C@@H](Cc2ccc3ccccc3c2)NC(=O)[C@H](Cc2c[nH]cn2)NC(=O)[C@H](CCC(=O)O)NC1=O [HS014] (Ac-CEH[d2Nal]RWGCPPKD-NH2; disulfide 1-8; N-terminus and C-terminus assumed),> 10 µM,–
"CCCC[C@@H]1NC(=O)[C@@H](NC(C)=O)CSSC[C@@H](C(N)=O)NC(=O)CNC(=O)[C@H](Cc2c[nH]c3ccccc23)NC(=O)[C@H](CCCNC(=N)N)NC(=O)[C@@H](Cc2ccc3ccccc3c2)NC(=O)[C@H](Cc2c[nH]cn2)NC(=O)[C@H](CCCNC(=N)N)NC1=O [HS024, (Acetyl-Cys^3,Nle^4,Arg^5,D-2-Nal^7,Cys^11)-α-MSH (3-11) amide] (Ac-C[Nle]RH[d2Nal]RWGC-NH2; disulfide 1-9 (inferred))",–,effect on food intake (food intake): dose dependant increase in food intake
Cc1[nH]c2ccccc2c1C[C@@H](NC(=O)[C@@H](N)Cc1cnc[nH]1)C(=O)N[C@@H](C)C(=O)N[C@@H](Cc1c[nH]c2ccccc12)C(=O)N[C@H](Cc1ccccc1)C(=O)N[C@@H](CCCCN)C(N)=O [Hexarelin] (H-H[dTrp(2-Me)]AW[dF]K-NH2),9.5 µM,–
CC(C)C[C@H](NC(=O)CNC(=O)[C@H](CCC(=O)O)NC(=O)CNC(=O)[C@H](C)N)C(=O)N[C@@H](CC(N)=O)C(=O)N[C@@H](CO)C(=O)N[C@@H](CCC(N)=O)C(=O)N[C@@H](Cc1ccccc1)C(=O)N[C@@H](Cc1c[nH]c2ccccc12)C(=O)N[C@@H](CO)C(=O)N[C@@H](CC(C)C)C(=O)N[C@@H](C)C(=O)N[C@@H](C)C(=O)N1CCC[C@H]1C(=O)N[C@@H](CCC(N)=O)C(=O)N[C@@H](CCCNC(=N)N)C(=O)N[C@@H](Cc1ccccc1)C(N)=O [NPAF] (H-AGEGLNSQFWSLAAPQRF-NH2; N-terminus assumed),> 10 µM,–
CC(C)C[C@H](NC(=O)[C@@H](N)CO)C(=O)N[C@@H](C)C(=O)N[C@@H](C)C(=O)N1CCC[C@H]1C(=O)N[C@@H](CCC(N)=O)C(=O)N[C@@H](CCCNC(=N)N)C(=O)N[C@@H](Cc1ccccc1)C(N)=O [NPSF] (H-SLAAPQRF-NH2),> 10 µM,–
CC(C)C[C@H](NC(=O)[C@H](CCCCN)NC(=O)[C@H](CCCN=C(N)N)NC(=O)[C@H](C)NC(=O)[C@H](CO)NC(=O)[C@H](CCCCN)NC(=O)[C@H](CCCN=C(N)N)NC(=O)[C@H](C)NC(=O)CNC(=O)[C@@H](NC(=O)[C@H](Cc1ccccc1)NC(=O)CNC(=O)CNC(=O)[C@@H](N)Cc1ccccc1)[C@@H](C)O)C(=O)N[C@@H](C)C(=O)N[C@@H](CC(N)=O)C(=O)N[C@@H](CCC(N)=O)C(=O)O [Nociceptin],> 10 µM,–
C[C@@H](O)[C@@H]1NC(=O)[C@H](CCCCN)NC(=O)[C@@H](Cc2c[nH]c3ccccc23)NC(=O)[C@H](Cc2ccccc2)NC(=O)[C@@H](NC(=O)[C@H](N)Cc2ccccc2)CSSC[C@@H](C(=O)N[C@H](CO)[C@@H](C)O)NC1=O [Octreotide],> 10 µM,–
α-MSH,–,response of MRGX2 receptor (receptor MRGX2): responds
γ-MSH,–,response of MRGX2 receptor (receptor MRGX2): responds
